# Test results: PubChem BioAssay AID743394 (Broad Institute, 2014)
# Values joined by “and” are separate entries in the source; they are usually repeats but may differ in a detail not shown here. Equal entries are not always repeated. Active and inactive are the calls of the source.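 How the source made its calls: active means 40% activation versus positive control reached by fitted dose-response curve at or below highest valid tested dose; inconclusive means poor fit quality, or flat fit with activation between 30% and 70%; inactive means the rest.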
# System: 68-5-11 mouse fibroblast XiGFP reporter, % GFP-positive imaging, 3 d
# Test: Xi-linked GFP reactivating small molecules – imaging, 68-5-11 mouse fibroblasts, cherry-pick, dose response (AID 743394);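 further: sensitizer 5-aza-dC present in the wells at 0.5 mM final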
# Conditions: not given
row,SMILES,AC40 [µM]
1,CC1=CC(=Cc2sc3ccccc3[n+]2C)C=C(C)O1,7.67

# Same assay, conditions: cells co-treated with 5-aza-dC sensitizer
row,SMILES,AC40
1,CC(C)CCN1CCN(Cc2cc3ccccc3[nH]2)CC1CCO (stereo not given),16.4 µM
2,CCN1/C(=C/c2ccc3cc(C)cc(C)c3[n+]2CC)Sc2cc(C)ccc21,0.507 µM
3,Cc1cc2oc3ccc(NCCCn4ccnc4)cc3c(=O)c2cc1C,11.3 µM
4,CCC(CO)[n+]1c(C)cc(/C=C2\Sc3ccccc3N2Cc2ccccc2)cc1C (stereo not given),1.55 µM
5,N#C/C(=C/c1ccc(N2CCCCC2)o1)C(=O)Nc1ccc2ccccc2c1,0.297 µM
6,CCOCCCNC(=O)/C(C#N)=C/c1ccc([N+](=O)[O-])o1,> 19.5 µM (inactive)
7,Nc1c(C(=O)c2cccs2)sc2nsc(SCCN3CCCCC3)c12,2.57 µM
8,O=[N+]([O-])c1ccc(N2N=C(c3ccccc3)CC2c2ccccc2O)cc1 (stereo not given),12.4 µM
9,COc1cc(/C=C/c2ccc3cccc(O)c3n2)c(Br)cc1O,14 µM
10,Cc1ccc(NC(=O)/C=C/c2ccc([N+](=O)[O-])s2)cc1,3.11 µM
11,N#CC(C#N)=C1C=C2C=C(N3CCCCCC3)CCC2CC1 (stereo not given),4 µM
12,COc1ccc(NC(=O)C(C)N2C(=O)c3ccccc3C2=O)c(OC)c1 (stereo not given),9.06 µM
13,CCCN1C(=O)S/C(=C\c2ccc(N3CCOCC3)o2)C1=O,> 19.5 µM (inactive)
14,COc1ccc(-[n+]2c(C)cc(/C=C3\Sc4ccccc4N3C)cc2C)cc1,0.22 µM
15,COc1ccc(C(=O)c2sc3nc(C)cc(-c4cccs4)c3c2N)cc1OC,> 19.5 µM (inactive)
16,Cc1cc(N/N=C/c2ccc([N+](=O)[O-])o2)nc2ccccc12,8.4 µM
17,CC(=O)Oc1cccc(N2C(=O)c3cccc4c([N+](=O)[O-])ccc(c34)C2=O)c1,5.28 µM
18,CCCN1CCN(C(=O)C2CCN(c3nnc(C)c4c(C)n(-c5ccc(C)cc5)nc34)CC2)CC1,8.7 µM
19,COc1cc(NS(=O)(=O)c2ccc3ccccc3c2)c2ncccc2c1,> 19.5 µM (inactive)
20,Cn1cc(/C=C/c2cc[n+](C)cc2)c2cc(Cl)ccc21,> 19.5 µM (inactive)
21,O=S(=O)(Nc1cc2nc3ccccc3nc2n1Cc1ccccc1)c1ccc(Cl)cc1,> 19.5 µM (inactive)
22,COc1ccc2nc(C)cc(NCc3ccc(F)cc3)c2c1,4.9 µM
23,O=[N+]([O-])c1ccc(C2=NN(c3ccccc3)C(c3ccco3)C2)cc1 (stereo not given),2.25 µM
24,CCN(CC)c1ccc2cc(-c3nc(-c4ccc(OC)cc4)cs3)c(=O)oc2c1,0.057 µM
25,CC(C)CCN1C(=O)c2cccc3c(N)ccc(c23)C1=O,7.46 µM

row,SMILES,AC40
1,O=CNc1ccc2c3c(cccc13)-c1ccccc1-2,5.85 µM
2,Cc1[nH]c2ccccc2c1/C=N/Nc1ccc([N+](=O)[O-])cc1,9.23 µM
3,O=c1oc2cc(O)ccc2cc1-c1nc2c(s1)CCc1ccccc1-2,2.79 µM
4,C[n+]1c2cc(N)ccc2cc2ccc(N)cc21,0.297 µM and 0.116 µM
5,CCCCNc1ccc2c3c(cccc13)C(=O)N(CCCC)C2=O,0.927 µM
6,Cc1ccc2[nH]c(C)c(/C=C/c3cc[n+](C)cc3)c2c1,8.58 µM
7,Oc1ccc(/C=N/Nc2ccnc3cc(Cl)ccc23)c(O)c1,> 19.5 µM (inactive)
8,COC(=O)C1=C(C)NC(C)=C(C(=O)OC)C1C(=O)OCC(=O)c1ccc(F)cc1,15.3 µM
9,CC[n+]1c(/C=C/C=C/N(C(C)=O)c2ccccc2)sc2cc(OC)ccc21,1.16 µM
10,Cc1ccccc1OCC(O)CNC1CCC(NCC(O)COc2ccccc2C)CC1 (stereo not given),> 19.5 µM (inactive)
11,Cc1ccc(NC(=O)/C=C/c2ccc([N+](=O)[O-])s2)c(C)c1,1.68 µM
12,CCN1/C(=C\c2ccc3cc(C)ccc3[n+]2CC)Sc2cc(C)c(C)cc21,5.57 µM
13,CCN1C(=O)[C@@H]2Cc3c([nH]c4ccccc34)C(c3cc(OC)c(OC)c(OC)c3)N2C1=S (stereo not given in full),> 19.5 µM (inactive)
14,Cc1ccc(C(=O)c2oc3ccccc3c2NC(=O)c2cc(-c3ccccc3O)n[nH]2)cc1,12.8 µM
15,CCOC(=O)/C=c1\s/c(=C\c2ccc3cc(OC)ccc3c2)c(=O)n1CC(=O)NCc1ccc2c(c1)OCO2,7.15 µM
16,CC(=O)c1ccc(C(=O)Nc2sc3c(c2C(N)=O)CCN(Cc2ccccc2)C3)cc1,> 19.5 µM (inactive)
17,CCN1CCc2c(sc(NC(=O)c3ccc(S(=O)(=O)N(CC)c4ccccc4)cc3)c2C(N)=O)C1,> 19.5 µM (inactive)
18,N#C/C(=C/c1ccc(-c2ccc(S(N)(=O)=O)cc2)o1)c1nc2ccccc2s1,1.17 µM
19,O=[N+]([O-])c1ccc(N/N=C/c2ccc[nH]2)cc1,> 19.5 µM (inactive)
20,O=S(=O)(Nc1cc(Sc2cccc3cccnc23)c(O)c2ccccc12)c1ccccc1,> 19.5 µM (inactive)
21,O=[N+]([O-])c1ccc(/C=N/NC(=S)Nc2ccc(Cl)cc2Cl)s1,> 19.5 µM (inactive)
22,COc1ccc2c(n1)Sc1nc3ccccc3nc1N2,13.1 µM
23,CC(C)(C)NC(=S)N/N=C\c1ccc(-c2ccc([N+](=O)[O-])cc2)o1,5.94 µM
24,O=C1c2cccc3c([N+](=O)[O-])ccc(c23)C(=O)N1Cc1cccnc1,10.1 µM
